Measurements from patent US11365192B2, “Pyridine compound substituted with azole” (TAISHO PHARMACEUTICAL CO., LTD., priority 2017, dated 2022).
pIC50: −log10 of the molar value.

What was measured:
human CYP4F2 = human CYP4F2 (Homo sapiens (Human), UniProt P78329); experiment: Inhibition test against 20-HETE producing enzyme CYP4F2 (luciferine derivative, luminescence); type: biochemical; conditions: E. coli membrane fraction expressing human CYP4F2, 2.5 μM luciferine derivative, room temperature 60 minutes
human CYP4F2, sequence (P78329 5-520): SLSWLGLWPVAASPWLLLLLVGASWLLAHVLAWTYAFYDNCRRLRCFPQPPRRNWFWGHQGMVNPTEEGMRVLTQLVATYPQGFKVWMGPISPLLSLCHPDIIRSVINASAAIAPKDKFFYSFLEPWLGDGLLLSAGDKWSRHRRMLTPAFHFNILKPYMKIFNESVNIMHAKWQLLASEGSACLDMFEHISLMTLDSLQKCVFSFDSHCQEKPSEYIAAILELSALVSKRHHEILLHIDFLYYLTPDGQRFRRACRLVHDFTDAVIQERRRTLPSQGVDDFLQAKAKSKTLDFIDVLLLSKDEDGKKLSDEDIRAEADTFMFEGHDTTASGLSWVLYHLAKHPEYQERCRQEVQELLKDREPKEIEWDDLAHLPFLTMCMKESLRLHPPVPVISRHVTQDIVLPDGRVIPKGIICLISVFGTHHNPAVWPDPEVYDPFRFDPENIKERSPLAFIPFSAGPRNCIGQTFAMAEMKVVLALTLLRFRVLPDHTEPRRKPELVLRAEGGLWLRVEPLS
Procedure, shortened: (§1)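 E. coli membranes (100 μg/mL protein) expressing human enzyme, room temperature 60 min, luciferin-derivative luminescence; IC50 from % inhibition. CYP4F2: 50 mM KPO4 pH 7.4, 2.5 μM substrate, 1 mM NADPH. CYP4A11: 100 mM Tris-HCl pH 7.5, 60 μM substrate, NADP+/glucose 6-phosphate/G6PDH regenerating system, 3.3 mM MgCl2.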

human CYP4A11 = human CYP4A11 (Homo sapiens (Human), UniProt Q02928); experiment: Inhibition test against 20-HETE producing enzyme CYP4A11 (luciferine derivative, luminescence); type: biochemical; conditions: E. coli membrane fraction expressing human CYP4A11, 60 μM luciferine derivative, room temperature 60 minutes
human CYP4A11, sequence (Q02928 5-519): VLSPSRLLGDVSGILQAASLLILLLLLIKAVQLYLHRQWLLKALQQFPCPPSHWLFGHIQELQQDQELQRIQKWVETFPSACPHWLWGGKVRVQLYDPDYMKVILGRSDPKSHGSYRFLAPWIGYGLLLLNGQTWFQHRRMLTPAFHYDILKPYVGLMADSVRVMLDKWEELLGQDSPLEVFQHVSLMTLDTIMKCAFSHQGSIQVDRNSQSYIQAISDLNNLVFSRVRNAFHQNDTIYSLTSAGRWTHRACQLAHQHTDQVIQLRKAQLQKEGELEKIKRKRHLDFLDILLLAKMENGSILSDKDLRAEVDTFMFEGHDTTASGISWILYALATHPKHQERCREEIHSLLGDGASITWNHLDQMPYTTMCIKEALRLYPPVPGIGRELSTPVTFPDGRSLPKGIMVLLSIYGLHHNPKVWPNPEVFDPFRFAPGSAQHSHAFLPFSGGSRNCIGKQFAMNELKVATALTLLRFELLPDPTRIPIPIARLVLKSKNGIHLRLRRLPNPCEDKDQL
Procedure, shortened: as §1

Compound	pIC50 (human CYP4F2)	pIC50 (human CYP4A11)
O=C(O)C1CCN(c2cccc(COc3ccc(-c4ccn[nH]4)nc3)c2)CC1 [Example 34-1, 1-[3-[[6-(1H-Pyrazol-5-yl)-3-pyridinyl]oxymethyl]phenyl]-4-piperidinecarboxylic Acid]	5.39	7.38
O=C(O)C1CCCN(c2cccc(COc3ccc(-c4ccn[nH]4)nc3)c2)C1 (centres unmarked) [Example 34-2]	4.96	7.30
O=C(O)Cn1cc(CCCOc2ccc(-c3ccn[nH]3)nc2)nn1 [Example 35-1, 2-[4-[3-[[6-(1H-Pyrazol-5-yl)-3-pyridinyl]oxy]propyl]-1-triazolyl]acetic Acid]	4.70	5.52
O=C(O)Cn1cc(CCCCOc2ccc(-c3ccn[nH]3)nc2)nn1 [Example 35-2]	5.24	6.44
CC(C)(C(=O)O)n1cc(CCCCOc2ccc(-c3ccn[nH]3)nc2)nn1 [Example 35-3]	5.13	6.54
O=C(O)Cc1cccc(COc2ccc(-c3cn[nH]c3)nc2)c1 [Example 38-2, 2-[3-[[6-(1H-Pyrazol-4-yl)-3-pyridinyl]oxymethyl]phenyl]acetic Acid]	4.72	7.96
Cc1cn[nH]c1-c1ccc(OCC23CCC(C(=O)O)(CC2)CC3)cn1 [Example 38-3, 1-[[6-(4-Methyl-1H-pyrazol-5-yl)-3-pyridinyl]oxymethyl]-4-bicyclo[2.2.2]octanecarboxylic Acid]	4.77	7.46
O=C(O)Cc1cccc(COc2ccc(-c3ccns3)nc2)c1 [Example 39-1, 2-[3-[[6-(5-Isothiazolyl)-3-pyridinyl]oxymethyl]phenyl]acetic Acid]	4.89	8.28
O=C(O)C12CCC(COc3ccc(-c4ccns4)nc3)(CC1)CC2 [Example 39-2]	4.66	7.74
O=C(O)Cc1cccc(COc2ccc(-c3cnco3)nc2)c1 [Example 40-1, 2-[3-[[6-(5-Oxazolyl)-3-pyridinyl]oxymethyl]phenyl]acetic Acid]	4.55	8.00
O=C(O)Cc1cccc(COc2ccc(-c3cncs3)nc2)c1 [Example 40-2]	5.09	8.16
O=C(c1ccc(=O)[nH]c1)N1CCC[C@@H](COc2ccc(-c3ccn[nH]3)nc2)C1 [Example 41-3]	5.37	6.24

These reach a higher pIC50 (human CYP4F2). Values come first.

pIC50 (human CYP4F2)	pIC50 (human CYP4A11)	Compound
5.82	6.15	O=C(c1cccc(=O)[nH]1)N1CCC[C@@H](COc2ccc(-c3ccn[nH]3)nc2)C1 [Example 41-4]
5.96	7.70	O=C(O)CCc1cccc(COc2cnc(-c3ccn[nH]3)c(F)c2)c1 [Example 38-1, 3-[3-[[5-Fluoro-6-(1H-pyrazol-5-yl)-3-pyridinyl]oxymethyl]phenyl]propanoic Acid]
6.23	6.60	NS(=O)(=O)c1cccc(C(=O)N2CCC[C@@H](COc3ccc(-c4ccn[nH]4)nc3)C2)c1 [Example 41-1, 3-[Oxo-[(3R)-3-[[6-(1H-pyrazol-5-yl)-3-pyridinyl]oxymethyl]-1-piperidinyl]methyl]benzenesulfonamide]
6.35	6.48	NS(=O)(=O)c1ccc(C(=O)N2CCC[C@@H](COc3ccc(-c4ccn[nH]4)nc3)C2)cc1 [Example 41-2]
6.41	7.59	O=C(O)c1cnn(-c2cccc(COc3ccc(-c4ccn[nH]4)nc3)c2)c1 [Example 34-3, 1-[3-[[6-(1H-Pyrazol-5-yl)-3-pyridinyl]oxymethyl]phenyl]-4-pyrazolecarboxylic Acid]
7.03	7.09	CC(C)(O)CS(=O)(=O)c1cccc(COc2ccc(-c3ccn[nH]3)nc2)c1 [Example 36-1, 2-Methyl-1-[3-[[6-(1-H-pyrazol-5-yl)-3-pyridinyl]oxymethyl]phenyl] sulfonyl-2-propanol]
7.49	7.34	CC(C)(CCCS(=O)(=O)c1cccc(COc2ccc(-c3ccn[nH]3)nc2)c1)C(=O)O [Example 37-1, 2,2-Dimethyl-5-[3-[[6-(1H-pyrazol-5-yl)-3-pyridinyl]oxymethyl]phenyl] sulfonylpentanoic Acid]
